Laboratory results reported in ChEMBL document CHEMBL3608235, “Pyrroloaryls and pyrroloheteroaryls: Inhibitors of the HIV fusion/attachment, reverse transcriptase and integrase” (Bioorg Med Chem, 2015).

What was measured:
[1] = system: Human immunodeficiency virus 1; assay: Antiviral activity against CXCR4-tropic HIV1 LAI infected in human MT2 cells by monogram phenosense entry assay; type: functional, organism-based; details: Human immunodeficiency virus 1, LAI
[2] = system: Human immunodeficiency virus 1; assay: Antiviral activity against CCR5-tropic HIV1 JRFL infected in human PM1 cells by monogram phenosense entry assay; type: functional, organism-based; details: Human immunodeficiency virus 1, JRFL
[3] = system: Human immunodeficiency virus 1; assay: Antiviral activity against CXCR4-tropic HIV1 NL4-3 infected in human MT2 cells by monogram phenosense entry assay; type: functional, organism-based; details: Human immunodeficiency virus 1, NL4-3, MT2
[4] = system: Human immunodeficiency virus 1; assay: Antiviral activity against CCR5-tropic HIV1 SF162 infected in human PM1 cells by monogram phenosense entry assay; type: functional, organism-based; details: Human immunodeficiency virus 1, SF162, PM1
[5] = system: Human immunodeficiency virus 1; assay: Antiviral activity against CXCR4-tropic HIV1 3B infected in human MT2 cells by monogram phenosense entry assay; type: functional, organism-based; details: Human immunodeficiency virus 1, 3B
[6] = system: Human immunodeficiency virus 1; assay: Antiviral activity against CXCR4-tropic HIV1 MN infected in human MT2 cells by monogram phenosense entry assay; type: functional, organism-based; details: Human immunodeficiency virus 1, MN
[7] = system: Human immunodeficiency virus 1; assay: Antiviral activity against CCR5-tropic HIV1 BAL infected in human PM1 cells by monogram phenosense entry assay; type: functional, organism-based; details: Human immunodeficiency virus 1, BAL
[8] = Selectivity index, ratio of IC50 for human C8166 cells to EC50 for HIV1 3B infected in human C8166 cells; type: toxicity, cell-based; details: C8166 cells (uninfected and HIV1 3B-infected), read-out: Ratio IC50/EC50
C8166 = assay: Cytotoxicity against human C8166 cells; type: cell-based; details: Homo sapiens, C8166
[9] = system: Human immunodeficiency virus 1; assay: Antiviral activity against HIV1 3B infected in human C8166 cells assessed as inhibition of virus replication; type: functional, organism-based; details: Human immunodeficiency virus 1, 3B
[10] = Selectivity index, ratio of CC50 for mock-infected human MT4 cells to EC50 for HIV1 infected in human MT4 cells; type: toxicity, cell-based; details: MT4 cells (mock-infected and HIV1-infected), read-out: Ratio CC50/EC50
[11] = Selectivity index, ratio of IC50 for human CEM-SS cells to EC50 for HIV1 infected in human CEM-SS cells; type: toxicity, cell-based; details: CEM-SS cells (uninfected and HIV1-infected), read-out: Ratio IC50/EC50

Row | EC50 [9] [nM] | SMILES | EC50 [1] [nM] | EC50 [2] [nM] | EC50 [3] [nM] | EC50 [4] [nM] | EC50 [5] [nM] | EC50 [6] [nM] | EC50 [7] [nM] | selectivity ratio [8] | IC50 (C8166) [nM] | selectivity ratio [10] | selectivity ratio [11]
1 | – | COc1cnc(-n2cnc(C)n2)c2[nH]cc(C(=O)C(=O)N3CCN(C(=O)c4ccccc4)CC3)c12 [TEMSAVIR] | 0.7 | 0.4 | 2.2 | 0.5 | 16.2 | 14.8 | 1.7 | – | – | – | –
2 | 33 | CCC1(c2cccc(OC)c2)Oc2ccccc2-n2cccc2C1=O (stereo not drawn) | – | – | – | – | – | – | – | 212 | 7000 | – | –
3 | – | Cc1ccnc2c1NC(=O)c1cccnc1N2C1CC1 [NEVIRAPINE] | – | – | – | – | – | – | – | > 250 | – | > 800 | 525
